Assay results reported in PMC8002893, “Influence of Complexation of Thiosemicarbazone Derivatives with Cu (II) Ions on Their Antitumor Activity against Melanoma Cells” (International Journal of Molecular Sciences, 2021).

Tests used:
[1] = tested on: A375 human melanoma cells; assay: MTT cell viability assay, A375 melanoma; assay type: cell-based; settings: Homo sapiens, A-375; A375, MTT test, 24 h treatment
Experimental: (§1) The evaluation of cytotoxicity of tested compounds was carried out on the G361, A375, and SK-MEL-28 human melanoma cells and BJ human normal fibroblast cells. The cell lines were obtained from American Type Culture Collection (ATCC, Manassas, VA, USA). The cells were cultured at 37 °C in the presence of 5% CO2 in atmosphere. The culture medium (Dulbecco’s Modified Eagle’s Medium for G361 and A375 and Eagle’s Minimum Essential Medium for SK-MEL-28 and BJ) was supplemented with 10% foetal bovine serum. The cells morphology was examined under inverted phase contrast microscope Nikon Eclipse Ti (Nikon, Tokyo, Japan). The authenticity of tested cell lines was verified by short tandem repeat (STR) genotyping in the Department of Forensic Medicine (Medical University of Lublin, Lublin, Poland).
(§2) The cells were seeded into 96-well plates (in concentration: BJ, A375, and SK-MEL-28—1 × 10^5 cells/mL, G361—1.5 × 10^5 cells/mL) and cultured until they reach 70–80% confluency. Then the cells were incubated with tested compounds and dacarbazine in concentrations ranging from 10 to 500 µM or DMSO as vehicle in control cultures for next 24 h (max. DMSO concentration <0.5%). The compounds cytotoxicity was evaluated with the MTT colorimetric method based on the ability of viable cells to the transformation of tetrazolium salts (3-[4,5-dimethylthiazol-2-yl]-2,5-) diphenyltetrazolium bromide, MTT) to purple formazan, by cellular dehydrogenases. After 24-h-incubation cell cultures were supplemented with 20 µL of 5 mg/mL MTT (Thermofisher, Waltham, MA, USA) stock in PBS (Corning, NY, USA), and the incubation was continued for 4 h at 37 °C. Next, the medium with MTT was removed, and the formed crystals were dissolved in 200 µL of DMSO (dimethyl sulfoxide, Avantor, Gliwice, Poland). The solution absorbency was measured at 570 nm, using a PowerWave™ xs microplate spectrophotometer (BioTek Instruments, Winooski, VT, USA). The experiment was performed three times with three replicates for each concentration of tested compounds. IC50 values were determined using the AAT Bioquest IC50 calculator [51]. On the basis of obtained IC50 values for normal and malignant cells, A375 cell line and three tested compounds (CuT1, Cu10, CuT16) were chosen for further investigation.

[2] = tested on: SK-MEL-28 human melanoma cells; assay: MTT cell viability assay, SK-MEL-28 melanoma; assay type: cell-based; settings: Homo sapiens; SK-MEL-28, MTT test, 24 h treatment
Experimental: as §1, §2

[3] = tested on: G361 human melanoma cells; assay: MTT cell viability assay, G361 melanoma; assay type: cell-based; settings: Homo sapiens, G-361; G361, MTT test, 24 h treatment
Experimental: as §1, §2

[4] = tested on: BJ human normal fibroblast cells; assay: MTT cell viability assay, BJ normal fibroblasts; assay type: cell-based; settings: Homo sapiens, Fibroblast, MTT test, 24 h treatment
Experimental: as §1, §2

| melting point [°C] | IC50 [1] [µM] | IC50 [2] [µM] | IC50 [3] [µM] | Compound | IC50 [4] [µM] |
| --- | --- | --- | --- | --- | --- |
| 209 to 211 | – | – | – | S=C(NN=Cc1ccc(Br)cc1)Nc1ccccc1Cl [T9, 2-[(4-Bromophenyl)methylidene]-N-(2-chlorophenyl)hydrazine-1-carbothioamide] | – |
| 210 to 211 | 112 ± 12.8 | 99.6 ± 5.76 | 177 ± 4.09 | S=C(NN=Cc1ccc(Cl)c(Cl)c1)Nc1ccccc1Cl [T12, 2-[(3,4-Dichlorophenyl)methylidene]-N-(2-chlorophenyl)hydrazine-1-carbothioamide] | 129 ± 7.09 |
| 210 to 212 | – | – | – | S=C(NN=Cc1ccc(Cl)c(Cl)c1)Nc1cccc(Cl)c1 [T15, N-(3-Chlorophenyl)-2-[(3,4-dichlorophenyl)methylidene]hydrazine-1-carbothioamide] | – |
| 202 to 204 | – | – | – | S=C(NN=Cc1ccc(Cl)c(Cl)c1)Nc1ccc(Cl)cc1 [T17, N-(4-Chlorophenyl)-2-[(3,4-dichlorophenyl)methylidene]hydrazine-1-carbothioamide] | – |
| 182 to 184 | – | – | – | S=C(NN=Cc1ccc(Br)cc1)Nc1ccc(Cl)cc1 [T18, 2-[(4-Bromophenyl)methylidene]-N-(4-chlorophenyl)hydrazine-1-carbothioamide] | – |

More lines, now with the values behind:

| Compound | melting point [°C] | IC50 [1] [µM] | IC50 [2] [µM] | IC50 [3] [µM] | IC50 [4] [µM] |
| --- | --- | --- | --- | --- | --- |
| Cc1ccccc1NC(=S)NN=Cc1ccc(Cl)c(Cl)c1 [T8, 2-[(3,4-Dichlorophenyl)methylidene]-N-(2-methylphenyl)hydrazine-1-carbothioamide] | 200 to 202 | – | – | – | – |
| COc1ccc(C=NNC(=S)Nc2ccccc2Cl)cc1OC [T10] | 179 to 180 | 202 ± 4.87 | < 500 | 370 ± 9.34 | 402 ± 13 |
| CC(=NNC(=S)Nc1ccccc1Cl)c1ccccc1 [T11, N-(2-Chlorophenyl)-2-(1-phenylethylidene)hydrazine-1-carbothioamide] | 115 to 117 | – | – | – | – |
| S=C(NN=Cc1ccc(Br)cc1)Nc1cccc(Cl)c1 [T13, 2-[(4-Bromophenyl)methylidene]-N-(3-chlorophenyl)hydrazine-1-carbothioamide] | 162 to 164 | 389 ± 7.06 | 399 ± 4.64 | 396 ± 6.74 | 412.8 ± 3.23 |
| COc1ccc(C=NNC(=S)Nc2ccc(Cl)cc2)cc1OC [T16] | 200 to 202 | > 500 | > 500 | > 500 | > 500 |
